Assay results from patent publication US9072791B2, “Photostabilized pharmaceutical compositions” (DENKI KAGAKU KOGYO KABUSHIKI KAISHA, priority 2008, dated 2015).
“And” between values parts separate entries of the source, which are not always exact repeats. Equal entries are not always repeated. Where two headings read alike, the source gives them in different places.

Experiments:
[1] = Photostability test with additional light-shielding film LUMICOOL 1905 (Example 6); type: physicochemical; conditions: for Molecular weight (×10^4), irradiation time 0 h / Molecular weight (×10^4), irradiation time 150 h / Molecular weight (×10^4), irradiation time 300 h / Percent Conjugation (%), irradiation time 0 h / Percent Conjugation (%), irradiation time 150 h / Percent Conjugation (%), irradiation time 300 h: vial wrapped with LUMICOOL 1905;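 as to all read-outs here: molecular weight and drug conjugation percentage of the test conjugate, both determined by the method given for the first production procedure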
[2] = Photostability test in glass vials not shielded from light: gelation, molecular weight, percent conjugation of MTX (Example 4(2)); type: physicochemical
Procedure: Various photostabilizers (methyl p-hydroxybenzoate (methyl paraben), salicylic acid Na, thiosulfuric acid Na, thioglycolic acid Na, N-acetyltryptophan, and tryptophan) were each dissolved in a preparation buffer (0.9% NaCl containing 2 mM phosphate buffer, pH 7.4) to give a concentration of 1 or 10 mg/ml and thereafter filtered aseptically by passage through a 0.2-μm filter (Millex GV). A powder of the HA-MTX conjugate prepared in accordance with Production 1 was metered aseptically and dissolved in the filtered, photostabilizer-containing preparation buffer to give a concentration of 10 mg/mL; the thus prepared solutions were used as test samples. To prepare a control solution, the HA-MTX conjugate was dissolved in a photostabilizer-free preparation buffer at a concentration of 10 mg/mL.
The thus prepared solutions were put into glass vials not shielded from light and then irradiated with light.
The irradiation was so performed as to give an illuminance of 4000 Lux at 25° C. from a fluorescent lamp for use in a photostability test (TOSHIBA FL20S•D-EDL-D65) by means of a photostability tester (ETAC LABONIC LA110). After the lapse of specified periods (0 h, 25 h, 50 h, 100 h, 150 h, and 300 h) of irradiation, samples were taken and not only checked for gelation but also measured for the molecular weight of the HA-MTX conjugate and the percent conjugation of MTX (in the HA-MTX conjugate).
To evaluate the degree of gelation, the surface of each sample solution was pierced with a spatula and visually checked for the formation of an interface as the result of gelation. […] The apparatus used in gel filtration chromatography was equipped with OHpackSB-806HQ (Shodex) as a column, RI-71 (Shodex) as an […], and 875-UV (JASCO, detection wavelength: 304 nm) as a UV detector and analysis was conducted under the following conditions. Eluent: 50 mM sodium phosphate aqueous solution (pH 6.0); elution rate: 0.6 mL/min; column temperature: 40° C. By the above-described gel filtration chromatography, the elution times of the conjugate of interest were determined and the molecular weight of the same conjugate was determined from the relationship between the elution times and molecular weights of standard substances. As the standard substances, hyaluronic acid samples were prepared in varying molecular weights and their accurate values were calculated by the limiting viscosity method before it was used.

[3] = added at 1 mg/mL, not shielded from light
[4] = additive 1 mg/ml, 4000 Lux, 25° C., not shielded from light
[5] = additive 10 mg/ml, 4000 Lux, 25° C., not shielded from light
[6] = with light-shielding film LUMICOOL 1905

Row | Molecular weight (×10^4), irradiation time 0 h [2, 4] | Molecular weight (×10^4), irradiation time 25 h [2, 4] | Molecular weight (×10^4), irradiation time 50 h [2, 4] | Molecular weight (×10^4), irradiation time 100 h [2, 4] | Molecular weight (×10^4), irradiation time 150 h [2, 4] | Molecular weight (×10^4), irradiation time 300 h [2, 4] | Percent Conjugation (%) of MTX, irradiation time 0 h [2, 4] [%] | Structure (SMILES) | Molecular weight (×10^4), irradiation time 0 h ([1]; additive 1 mg/mL) | Molecular weight (×10^4), irradiation time 150 h ([1]; additive 1 mg/mL) | Molecular weight (×10^4), irradiation time 300 h ([1]; additive 1 mg/mL) | Percent Conjugation (%), irradiation time 0 h ([1]; additive 1 mg/mL) [%] | Percent Conjugation (%), irradiation time 150 h ([1]; additive 1 mg/mL) [%] | Percent Conjugation (%), irradiation time 300 h ([1]; additive 1 mg/mL) [%] | Molecular weight (×10^4), irradiation time 0 h ([1]; additive 10 mg/mL) | Molecular weight (×10^4), irradiation time 150 h ([1]; additive 10 mg/mL) | Molecular weight (×10^4), irradiation time 300 h ([1]; additive 10 mg/mL) | Percent Conjugation (%), irradiation time 0 h ([1]; additive 10 mg/mL) [%] | Percent Conjugation (%), irradiation time 150 h ([1]; additive 10 mg/mL) [%] | Percent Conjugation (%), irradiation time 300 h ([1]; additive 10 mg/mL) [%] | suppressing drops in the molecular weight and percent conjugation [2, 3] | also measured
1 | 178 ×10^4 | 164 ×10^4 | 166 ×10^4 | 138 ×10^4 | 128 ×10^4 | 78 ×10^4 | 2.2 | CC(=O)N[C@@H](Cc1c[nH]c2ccccc12)C(=O)O [N-acetyltryptophan] | 178 ×10^4 | 172 ×10^4 | 136 ×10^4 | 2.2 | 2.3 | 2.2 | 190 ×10^4 | 186 ×10^4 | 187 ×10^4 | 2.2 | 2.2 | 2.2 | could suppress drops in the molecular weight and percent conjugation for irradiation periods that did not exceed about 100 hours | Percent Conjugation (%) of MTX, irradiation time 25 h [2, 4]: 2.2%; Percent Conjugation (%) of MTX, irradiation time 50 h [2, 4]: 2.3%; Percent Conjugation (%) of MTX, irradiation time 100 h [2, 4]: 2.2%; Percent Conjugation (%) of MTX, irradiation time 150 h [2, 4]: 2.1%; Percent Conjugation (%) of MTX, irradiation time 300 h [2, 4]: 2.1%; Molecular weight (×10^4), irradiation time 0 h [2, 5]: 190 ×10^4; Molecular weight (×10^4), irradiation time 25 h [2, 5]: 180 ×10^4; Molecular weight (×10^4), irradiation time 50 h [2, 5]: 175 ×10^4; Molecular weight (×10^4), irradiation time 100 h [2, 5]: 146 ×10^4; Molecular weight (×10^4), irradiation time 150 h [2, 5]: 135 ×10^4; Molecular weight (×10^4), irradiation time 300 h [2, 5]: 97 ×10^4; Percent Conjugation (%) of MTX, irradiation time 0 h [2, 5]: 2.2%; Percent Conjugation (%) of MTX, irradiation time 25 h [2, 5]: 2.2%; Percent Conjugation (%) of MTX, irradiation time 50 h [2, 5]: 2.2%; Percent Conjugation (%) of MTX, irradiation time 100 h [2, 5]: 1.9%; Percent Conjugation (%) of MTX, irradiation time 150 h [2, 5]: 2.1%; Percent Conjugation (%) of MTX, irradiation time 300 h [2, 5]: 2.0%
2 |  |  |  |  |  |  |  | O=C([O-])c1ccccc1O.[Na+] [Na salicylate, sodium salicylate] | 186 ×10^4 | 184 ×10^4 | 163 ×10^4 | 2.2 | 2.1 | 2.2 | 185 ×10^4 | 190 ×10^4 | 179 ×10^4 | 2.2 | 2.2 | 2.1 |  | stabilizing effects (suppressing effects on the drop in molecular weight and the drop in percent conjugation of MTX) [1, 6]: comparable to those obtained in the case where complete shielding of light was ensured by aluminum foil; Molecular weight (×10^4), irradiation time 0 h [2]: 185 ×10^4 and 186 ×10^4; Molecular weight (×10^4), irradiation time 25 h [2]: 176 ×10^4 and 172 ×10^4; Percent Conjugation (%) of MTX, irradiation time 0 h [2]: 2.2%; Percent Conjugation (%) of MTX, irradiation time 25 h [2]: 2.2%; Percent Conjugation (%) of MTX, irradiation time 50 h [2]: 2.1%; Percent Conjugation (%) of MTX, irradiation time 100 h [2]: 2.1% and 1.9%; Percent Conjugation (%) of MTX, irradiation time 150 h [2]: 2.2% and 1.8%; Percent Conjugation (%) of MTX, irradiation time 300 h [2]: 2.2% and 2.0%; suppressing drops in the molecular weight and percent conjugation [2]: considerably effective in suppressing drops in the molecular weight and percent conjugation even when the time of irradiation exceeded 100 hours
3 |  |  |  |  |  |  |  | O=S([O-])([O-])=S.[Na+].[Na+] [Na thiosulfate, sodium thiosulfate] | 181 ×10^4 | 186 ×10^4 | 180 ×10^4 | 2.3 | 2.2 | 2.2 | 190 ×10^4 | 188 ×10^4 | 186 ×10^4 | 2.1 | 2.2 | 2.1 |  | stabilizing effects (suppressing effects on the drop in molecular weight and the drop in percent conjugation of MTX) [1, 6]: comparable to those obtained in the case where complete shielding of light was ensured by aluminum foil; Molecular weight (×10^4), irradiation time 0 h [2]: 190 ×10^4 and 181 ×10^4; Molecular weight (×10^4), irradiation time 25 h [2]: 190 ×10^4 and 145 ×10^4; Percent Conjugation (%) of MTX, irradiation time 0 h [2]: 2.1% and 2.3%; Percent Conjugation (%) of MTX, irradiation time 25 h [2]: 2.2% and 2.1%; Percent Conjugation (%) of MTX, irradiation time 50 h [2]: 2.3% and 1.5%; Percent Conjugation (%) of MTX, irradiation time 100 h [2]: 2.1% and 0.8%; Percent Conjugation (%) of MTX, irradiation time 150 h [2]: 2.2% and 0.6%; Percent Conjugation (%) of MTX, irradiation time 300 h [2]: 2.1% and 0.4%; suppressing drops in the molecular weight and percent conjugation [2]: considerably effective in suppressing drops in the molecular weight and percent conjugation even when the time of irradiation exceeded 100 hours
4 | 187 ×10^4 | 155 ×10^4 | 127 ×10^4 | 107 ×10^4 | 126 ×10^4 | 65 ×10^4 | 2.2 | COC(=O)c1ccc(O)cc1 [Methyl paraben, methyl p-hydroxybenzoate] | 187 ×10^4 | 184 ×10^4 | 179 ×10^4 | 2.2 | 2.2 | 2.2 |  |  |  |  |  |  | could suppress drops in the molecular weight and percent conjugation for irradiation periods that did not exceed about 100 hours | stabilizing effects (suppressing effects on the drop in molecular weight and the drop in percent conjugation of MTX) [1]: comparable to those obtained in the case where complete shielding of light was ensured by aluminum foil; Percent Conjugation (%) of MTX, irradiation time 25 h [2, 4]: 2.0%; Percent Conjugation (%) of MTX, irradiation time 50 h [2, 4]: 2.1%; Percent Conjugation (%) of MTX, irradiation time 100 h [2, 4]: 2.0%; Percent Conjugation (%) of MTX, irradiation time 150 h [2, 4]: 2.1%; Percent Conjugation (%) of MTX, irradiation time 300 h [2, 4]: 1.9%

Row | Structure (SMILES) | Molecular weight (×10^4), irradiation time 0 h [2, 4] | Molecular weight (×10^4), irradiation time 25 h [2, 4] | Molecular weight (×10^4), irradiation time 50 h [2, 4] | Molecular weight (×10^4), irradiation time 100 h [2, 4] | Molecular weight (×10^4), irradiation time 150 h [2, 4] | Molecular weight (×10^4), irradiation time 300 h [2, 4] | Percent Conjugation (%) of MTX, irradiation time 0 h [2, 4] [%] | Molecular weight (×10^4), irradiation time 0 h ([1]; additive 1 mg/mL) | Molecular weight (×10^4), irradiation time 150 h ([1]; additive 1 mg/mL) | Molecular weight (×10^4), irradiation time 300 h ([1]; additive 1 mg/mL) | Percent Conjugation (%), irradiation time 0 h ([1]; additive 1 mg/mL) [%] | Percent Conjugation (%), irradiation time 150 h ([1]; additive 1 mg/mL) [%] | Percent Conjugation (%), irradiation time 300 h ([1]; additive 1 mg/mL) [%] | Molecular weight (×10^4), irradiation time 0 h ([1]; additive 10 mg/mL) | Molecular weight (×10^4), irradiation time 150 h ([1]; additive 10 mg/mL) | Molecular weight (×10^4), irradiation time 300 h ([1]; additive 10 mg/mL) | Percent Conjugation (%), irradiation time 0 h ([1]; additive 10 mg/mL) [%] | Percent Conjugation (%), irradiation time 150 h ([1]; additive 10 mg/mL) [%] | Percent Conjugation (%), irradiation time 300 h ([1]; additive 10 mg/mL) [%] | suppressing drops in the molecular weight and percent conjugation [2, 3] | also measured
5 | N[C@@H](Cc1c[nH]c2ccccc12)C(=O)O [Tryptophan, tryptophan] | 188 ×10^4 | 171 ×10^4 | 138 ×10^4 | 112 ×10^4 | 83 ×10^4 | 45 ×10^4 | 2.2 | 188 ×10^4 | 176 ×10^4 | 153 ×10^4 | 2.2 | 2.2 | 2.2 | 181 ×10^4 | 177 ×10^4 | 156 ×10^4 | 2.2 | 2.2 | 2.2 | could suppress drops in the molecular weight and percent conjugation for irradiation periods that did not exceed about 100 hours | Percent Conjugation (%) of MTX, irradiation time 25 h [2, 4]: 2.2%; Percent Conjugation (%) of MTX, irradiation time 50 h [2, 4]: 2.2%; Percent Conjugation (%) of MTX, irradiation time 100 h [2, 4]: 2.2%; Percent Conjugation (%) of MTX, irradiation time 150 h [2, 4]: 2.1%; Percent Conjugation (%) of MTX, irradiation time 300 h [2, 4]: 2.2%; Molecular weight (×10^4), irradiation time 0 h [2, 5]: 181 ×10^4; Molecular weight (×10^4), irradiation time 25 h [2, 5]: 175 ×10^4; Molecular weight (×10^4), irradiation time 50 h [2, 5]: 164 ×10^4; Molecular weight (×10^4), irradiation time 100 h [2, 5]: 118 ×10^4; Molecular weight (×10^4), irradiation time 150 h [2, 5]: 110 ×10^4; Molecular weight (×10^4), irradiation time 300 h [2, 5]: 70 ×10^4; Percent Conjugation (%) of MTX, irradiation time 0 h [2, 5]: 2.2%; Percent Conjugation (%) of MTX, irradiation time 25 h [2, 5]: 2.3%; Percent Conjugation (%) of MTX, irradiation time 50 h [2, 5]: 2.2%; Percent Conjugation (%) of MTX, irradiation time 100 h [2, 5]: 2.2%; Percent Conjugation (%) of MTX, irradiation time 150 h [2, 5]: 2.2%; Percent Conjugation (%) of MTX, irradiation time 300 h [2, 5]: 2.2%
